Results: paper PMC6199744, “Development of Chemical Proteomics for the Folateome and Analysis of the Kinetoplastid Folateome” (ACS Infectious Diseases, 2018)
Like-named read-outs stand apart in the source and are kept apart here.

Experiments:
Type in all cases: binding
[1] = molecular target: T1, HeLa cell extract proteins (Homo sapiens, UniProt Q9BUF5); settings: HeLa; protein TUBB6
T1 construct: endogenous in cells; host or cells: HeLa cell extract

[2] = molecular target: T2, HeLa cell extract proteins (Homo sapiens, UniProt Q08945); settings: protein SSRP1; HeLa
T2 construct: endogenous in cells; host or cells: HeLa cell extract
T2 sequence (Q08945 whole entry): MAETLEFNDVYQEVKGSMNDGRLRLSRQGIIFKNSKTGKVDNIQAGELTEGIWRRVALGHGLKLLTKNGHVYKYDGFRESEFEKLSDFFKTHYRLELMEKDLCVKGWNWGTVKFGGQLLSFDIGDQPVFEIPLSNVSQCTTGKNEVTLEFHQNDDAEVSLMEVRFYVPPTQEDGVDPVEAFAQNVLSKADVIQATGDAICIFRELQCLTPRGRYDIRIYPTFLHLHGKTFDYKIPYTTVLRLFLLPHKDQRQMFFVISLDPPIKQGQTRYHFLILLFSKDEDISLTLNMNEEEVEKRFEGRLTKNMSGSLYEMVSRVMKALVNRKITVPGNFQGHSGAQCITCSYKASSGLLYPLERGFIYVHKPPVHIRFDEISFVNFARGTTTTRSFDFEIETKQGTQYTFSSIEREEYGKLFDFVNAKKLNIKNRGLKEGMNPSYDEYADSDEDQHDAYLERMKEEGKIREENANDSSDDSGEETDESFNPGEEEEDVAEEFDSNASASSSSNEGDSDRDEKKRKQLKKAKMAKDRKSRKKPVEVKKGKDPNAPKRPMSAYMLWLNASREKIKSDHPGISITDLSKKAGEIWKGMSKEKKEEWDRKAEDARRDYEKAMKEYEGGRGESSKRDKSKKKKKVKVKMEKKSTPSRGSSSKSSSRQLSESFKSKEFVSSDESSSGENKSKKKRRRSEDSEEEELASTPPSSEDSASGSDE

[3] = molecular target: T3, HeLa cell extract proteins (Homo sapiens, UniProt O94855)
T3 construct: endogenous in cells; host or cells: HeLa cell extract
T3 sequence (O94855 1-1032): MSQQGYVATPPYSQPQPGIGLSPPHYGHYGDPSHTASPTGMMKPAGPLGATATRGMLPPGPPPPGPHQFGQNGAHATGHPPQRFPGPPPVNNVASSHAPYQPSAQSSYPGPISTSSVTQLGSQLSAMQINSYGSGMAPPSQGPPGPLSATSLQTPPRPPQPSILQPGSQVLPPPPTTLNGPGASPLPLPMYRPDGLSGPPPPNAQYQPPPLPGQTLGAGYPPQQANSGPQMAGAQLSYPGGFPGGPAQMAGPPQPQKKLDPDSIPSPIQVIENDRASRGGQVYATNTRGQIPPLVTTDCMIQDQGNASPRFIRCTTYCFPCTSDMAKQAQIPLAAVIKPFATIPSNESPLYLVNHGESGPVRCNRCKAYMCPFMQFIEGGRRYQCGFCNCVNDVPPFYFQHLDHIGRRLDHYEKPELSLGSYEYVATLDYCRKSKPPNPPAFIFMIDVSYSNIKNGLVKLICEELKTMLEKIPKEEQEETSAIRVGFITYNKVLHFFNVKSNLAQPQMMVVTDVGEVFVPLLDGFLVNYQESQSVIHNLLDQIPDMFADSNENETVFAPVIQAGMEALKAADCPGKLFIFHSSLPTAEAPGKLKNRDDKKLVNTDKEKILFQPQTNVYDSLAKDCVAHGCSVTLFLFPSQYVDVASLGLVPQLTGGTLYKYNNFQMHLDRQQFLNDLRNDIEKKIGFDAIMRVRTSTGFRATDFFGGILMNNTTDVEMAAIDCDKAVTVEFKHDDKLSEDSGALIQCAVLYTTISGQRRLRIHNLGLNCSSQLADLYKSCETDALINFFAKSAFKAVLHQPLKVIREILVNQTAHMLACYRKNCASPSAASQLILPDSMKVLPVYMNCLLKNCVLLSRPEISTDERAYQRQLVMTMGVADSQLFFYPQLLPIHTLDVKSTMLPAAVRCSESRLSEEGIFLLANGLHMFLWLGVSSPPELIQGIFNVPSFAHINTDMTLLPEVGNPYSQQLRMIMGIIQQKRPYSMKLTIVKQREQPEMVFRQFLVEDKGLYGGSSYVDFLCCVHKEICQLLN

[4] = molecular target: T4, HeLa cell extract proteins (Homo sapiens, UniProt P14373)
T4 construct: endogenous in cells; host or cells: HeLa cell extract
T4 sequence (P14373 1-513): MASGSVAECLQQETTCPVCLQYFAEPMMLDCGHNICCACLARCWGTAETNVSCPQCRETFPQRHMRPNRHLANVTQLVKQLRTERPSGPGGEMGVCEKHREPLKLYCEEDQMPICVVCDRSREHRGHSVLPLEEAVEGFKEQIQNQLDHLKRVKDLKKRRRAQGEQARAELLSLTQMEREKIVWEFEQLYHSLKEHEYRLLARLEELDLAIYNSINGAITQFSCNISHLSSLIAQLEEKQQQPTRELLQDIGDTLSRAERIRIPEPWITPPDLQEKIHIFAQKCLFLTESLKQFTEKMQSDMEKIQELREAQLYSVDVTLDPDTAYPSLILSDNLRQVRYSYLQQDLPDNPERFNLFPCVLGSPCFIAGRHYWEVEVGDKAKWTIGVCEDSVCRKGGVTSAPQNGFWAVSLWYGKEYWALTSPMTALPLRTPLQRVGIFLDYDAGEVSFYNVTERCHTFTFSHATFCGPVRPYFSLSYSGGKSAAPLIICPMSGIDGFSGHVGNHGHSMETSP

[5] = molecular target: T5, HeLa cell extract proteins (Homo sapiens, UniProt P61088)
T5 construct: endogenous in cells; host or cells: HeLa cell extract
T5 sequence (P61088 1-152): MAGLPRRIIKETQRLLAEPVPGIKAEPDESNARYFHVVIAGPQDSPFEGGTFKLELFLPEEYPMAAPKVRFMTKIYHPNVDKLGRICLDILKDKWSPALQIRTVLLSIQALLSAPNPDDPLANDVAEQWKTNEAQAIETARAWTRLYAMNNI

[6] = molecular target: T6, HeLa cell extract proteins (Homo sapiens, UniProt Q6PJG6)
T6 construct: endogenous in cells; host or cells: HeLa cell extract
T6 sequence (Q6PJG6 1-821): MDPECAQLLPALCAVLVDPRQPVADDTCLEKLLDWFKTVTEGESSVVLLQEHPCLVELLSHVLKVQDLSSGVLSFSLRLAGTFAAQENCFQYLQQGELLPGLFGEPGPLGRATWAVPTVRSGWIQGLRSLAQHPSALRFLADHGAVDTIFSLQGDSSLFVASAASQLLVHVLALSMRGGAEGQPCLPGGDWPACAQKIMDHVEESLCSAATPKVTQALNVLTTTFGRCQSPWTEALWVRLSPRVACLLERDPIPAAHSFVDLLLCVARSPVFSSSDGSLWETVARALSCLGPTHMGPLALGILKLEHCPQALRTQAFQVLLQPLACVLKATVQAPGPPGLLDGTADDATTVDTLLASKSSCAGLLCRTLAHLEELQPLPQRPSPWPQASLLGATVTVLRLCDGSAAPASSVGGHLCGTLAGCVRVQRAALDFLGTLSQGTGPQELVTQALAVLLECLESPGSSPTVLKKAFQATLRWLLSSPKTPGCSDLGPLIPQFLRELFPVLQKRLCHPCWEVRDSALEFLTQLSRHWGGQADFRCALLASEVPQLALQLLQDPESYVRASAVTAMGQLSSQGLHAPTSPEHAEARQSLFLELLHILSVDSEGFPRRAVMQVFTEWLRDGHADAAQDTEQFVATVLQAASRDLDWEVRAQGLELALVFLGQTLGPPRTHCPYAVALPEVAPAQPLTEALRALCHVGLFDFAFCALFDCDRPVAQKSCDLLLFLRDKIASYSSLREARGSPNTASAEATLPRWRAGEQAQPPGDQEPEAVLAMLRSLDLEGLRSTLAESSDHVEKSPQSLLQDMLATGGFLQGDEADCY

T1 sequence (Q9BUF5 whole entry): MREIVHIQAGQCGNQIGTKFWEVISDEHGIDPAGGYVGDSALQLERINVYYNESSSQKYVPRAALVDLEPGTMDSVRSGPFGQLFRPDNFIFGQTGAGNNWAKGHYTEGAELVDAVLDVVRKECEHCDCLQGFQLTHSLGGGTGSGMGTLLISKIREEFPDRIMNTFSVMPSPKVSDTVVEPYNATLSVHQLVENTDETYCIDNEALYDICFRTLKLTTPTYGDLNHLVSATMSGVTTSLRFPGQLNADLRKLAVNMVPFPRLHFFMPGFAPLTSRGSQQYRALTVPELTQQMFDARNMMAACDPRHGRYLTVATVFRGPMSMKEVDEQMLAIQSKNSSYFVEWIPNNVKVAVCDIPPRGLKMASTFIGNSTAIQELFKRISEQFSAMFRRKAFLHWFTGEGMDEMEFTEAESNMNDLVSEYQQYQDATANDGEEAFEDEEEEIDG

SMILES	fold changes relative to vehicle control [1]	fold changes relative to vehicle control [2]	fold changes relative to vehicle control ([3]; HeLa, captured protein SEC24D)	fold changes relative to vehicle control ([4]; HeLa, captured protein TRIM27)	fold changes relative to vehicle control ([5]; HeLa, protein UBE2N)	fold changes relative to vehicle control ([6]; HeLa, protein C7ORF27)	further results
Nc1nc2cccc(-c3ccccc3)c2n1Cc1ccc(Cl)c(Cl)c1 [compound 3]	1.19	0.95					
NCCOCCOCC(=O)Nc1nc2ncc(CNc3ccc(C(=O)NC(CCC(=O)O)C(=O)O)cc3)nc2c(=O)[nH]1 (stereo not shown) [compound 6]			1.15	0.89	1.78	1.02	
Nc1nc2[nH]cc(CCc3ccc(C(=O)N[C@@H](CCC(=O)O)C(=O)O)cc3)c2c(=O)[nH]1 [PTX, pemetrexed]							fold changes relative to vehicle control [3]: 1.09; fold changes relative to vehicle control [4]: 0.87; fold changes relative to vehicle control [5]: 1.83; fold changes relative to vehicle control [6]: 0.88
Nc1nc2c(c(=O)[nH]1)N(C=O)C(CNc1ccc(C(=O)N[C@@H](CCC(=O)O)C(=O)O)cc1)CN2 (stereo partly shown) [LEU, leucovorin]			1.12	0.97	1.06	0.75	
CCCCCCOc1ccc(Cc2cnc(N)nc2N)cc1 [compound 1]	0.7	0.93					
NCCCNc1ccc(C(=O)NC(CCC(=O)O)C(=O)O)cc1 (stereo not shown) [compound 7]			1.04	1.01	1.19	0.87	
CCCCCCOc1cccc(Cc2cnc(N)nc2N)c1 [compound 2]	0.91	1.44					
